Source: PubChem BioAssay AID330 (DTP/NCI, 2004)
“And” between values parts separate entries of the source, which are not always exact repeats. Equal values may be shown once. Inconclusive results and toxic doses are left out. Rule for the calls: active = survival T/C of 150% or more; inactive = T/C below 125% in these data.

System: P388 leukemia ip, CD2F1 mice, survival T/C
Assay: NCI In Vivo Anticancer Drug Screen. Data for tumor model P388 Leukemia (intraperitoneal) in CD2F1 (CDF1) mice
Details: endpoint: median survival time, higher = longer survival
Procedure, shortened: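 Mice carrying the transplanted tumor received test compound or vehicle. Survival was recorded in each group, and the value is the treated-group measurement divided by that of the vehicle-treated control group.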

[1] = dose: 50.0 mg/kg/injection, schedule: Q01DX005 (ip), vehicle: Klucel (hydroxypropylcellulose) (HPC)
[2] = dose: 100.0 mg/kg/injection, schedule: Q01DX005 (ip), vehicle: Klucel (hydroxypropylcellulose) (HPC)
[3] = dose: 200.0 mg/kg/injection, schedule: Q01DX005 (ip), vehicle: Klucel (hydroxypropylcellulose) (HPC)
[4] = dose: 50.0 mg/kg/injection, schedule: Q01DX009 (ip), vehicle: saline with Tween-80
[5] = dose: 60.0 mg/kg/injection, schedule: Q01DX005 (ip), vehicle: saline with Tween-80
[6] = dose: 120.0 mg/kg/injection, schedule: Q01DX005 (ip), vehicle: saline with Tween-80
[7] = dose: 240.0 mg/kg/injection, schedule: Q01DX005 (ip), vehicle: saline with Tween-80
[8] = dose: 25.0 mg/kg/injection, schedule: Q01DX005 (ip), vehicle: Klucel (hydroxypropylcellulose) (HPC)

Measured: T/C

C1=C(CC[Si]23OCCN(CCO2)CCO3)CCCC1
inactive: [1] 110 % of control | [2] 103 % of control | [3] 103 % of control

COc1ccc2c(c1)CCc1c-2nc[nH]c1=O
inactive: dose: 100.0 mg/kg/injection, schedule: Q04DX002 (ip), vehicle: saline with Tween-80 103 % of control | dose: 200.0 mg/kg/injection, schedule: Q04DX002 (ip), vehicle: saline with Tween-80 96 % of control | dose: 400.0 mg/kg/injection, schedule: Q04DX002 (ip), vehicle: saline with Tween-80 96 % of control

C/C(=N\NC(=S)N1CC(C)OC(C)C1)c1ncccn1 (stereo unspecified)
inactive: dose: 7.5 mg/kg/injection, schedule: Q01DX005 (ip), vehicle: saline with Tween-80 104 % of control | dose: 15.0 mg/kg/injection, schedule: Q01DX005 (ip), vehicle: saline with Tween-80 98 % of control

O=C(c1ccc(Cl)cc1)c1nnc(Cl)s1
inactive: [4] 110 % of control | dose: 100.0 mg/kg/injection, schedule: Q01DX009 (ip), vehicle: saline with Tween-80 118 % of control | dose: 200.0 mg/kg/injection, schedule: Q01DX009 (ip), vehicle: saline with Tween-80 101 % of control

CCOC(=O)c1cnc2ccc(C3CCCCC3)cc2c1Nc1ccc2c(c1)OCO2
inactive: [5] 99 % of control | [6] 91 % of control | [7] 91 % of control

COC(=O)C12CCC(C(=O)OC)(CC1)n1c(=O)n(-c3ccccc3)c(=O)n12
inactive: dose: 50.0 mg/kg/injection, schedule: Q01DX005 (ip), vehicle: saline with Tween-80 102 % of control | dose: 100.0 mg/kg/injection, schedule: Q01DX005 (ip), vehicle: saline with Tween-80 102 % of control | dose: 200.0 mg/kg/injection, schedule: Q01DX005 (ip), vehicle: saline with Tween-80 102 % of control

CC1=C(CCC(C)NCc2ccc(OCCCN3CCCCC3)cc2)C(C)(C)CCC1 (stereo unspecified)
inactive: dose: 6.25 mg/kg/injection, schedule: Q01DX005 (ip), vehicle: Klucel (hydroxypropylcellulose) (HPC) 104 % of control | dose: 12.5 mg/kg/injection, schedule: Q01DX005 (ip), vehicle: Klucel (hydroxypropylcellulose) (HPC) 98 % of control | [8] 104 % of control

O=c1oc2ccccc2c2c1C(c1ccc3c(c1)OCO3)C=C(c1ccc3c(c1)OCO3)O2 (stereo unspecified)
inactive: dose: 25.0 mg/kg/injection, schedule: Q01DX009 (ip), vehicle: water 94 % of control | dose: 50.0 mg/kg/injection, schedule: Q01DX009 (ip), vehicle: water 94 % of control | dose: 100.0 mg/kg/injection, schedule: Q01DX009 (ip), vehicle: water 94 % of control | dose: 200.0 mg/kg/injection, schedule: Q01DX009 (ip), vehicle: water 92 % of control

C=CC(C)CC(N)C(=O)O (stereo unspecified)
inactive: dose: 60.0 mg/kg/injection, schedule: Q01DX005 (ip), vehicle: saline 123 % of control | dose: 120.0 mg/kg/injection, schedule: Q01DX005 (ip), vehicle: saline 105 % of control | dose: 240.0 mg/kg/injection, schedule: Q01DX005 (ip), vehicle: saline 104 % of control

CS(=O)(=O)c1ccc(/C(=N/N)c2ccccc2)cc1
inactive: dose: 12.5 mg/kg/injection, schedule: Q01DX009 (ip), vehicle: Klucel (hydroxypropylcellulose) (HPC) 103 % of control | dose: 25.0 mg/kg/injection, schedule: Q01DX009 (ip), vehicle: Klucel (hydroxypropylcellulose) (HPC) 102 % of control | dose: 50.0 mg/kg/injection, schedule: Q01DX009 (ip), vehicle: Klucel (hydroxypropylcellulose) (HPC) 101 % of control and 93 % of control

c1ccc(Cn2nnnc2Nc2ccccc2)cc1
inactive: [8] 94 % of control | [1] 88 % of control and 97 % of control | [2] 94 % of control | [3] 90 % of control

CC(=O)C(=O)c1ccc(O)cc1
inactive: dose: 10.0 mg/kg/injection, schedule: Q01DX009 (ip), vehicle: saline with Tween-80 96 % of control | dose: 20.0 mg/kg/injection, schedule: Q01DX009 (ip), vehicle: saline with Tween-80 94 % of control | dose: 40.0 mg/kg/injection, schedule: Q01DX009 (ip), vehicle: saline with Tween-80 99 % of control

CC(SCCCCCCSC(C)C(=O)O)C(=O)O (stereo unspecified)
inactive: [1] 110 % of control | [2] 97 % of control | [3] 95 % of control

O=[N+]([O-])c1ccccc1S(=O)(=O)N(CCCCN(S(=O)(=O)c1ccccc1[N+](=O)[O-])S(=O)(=O)c1ccccc1[N+](=O)[O-])S(=O)(=O)c1ccccc1[N+](=O)[O-]
inactive: [5] 93 % of control | [6] 91 % of control | [7] 87 % of control

Cn1/c2cc/c1=C(\c1ccccc1)c1ccc([n-]1)/C(c1ccccc1)=c1/cc/c([nH]1)=C(\c1ccccc1)c1ccc([n-]1)/C=2c1ccccc1.O.O=S(=O)(O)C(F)(F)F.[Cu+2]
inactive: dose: 12.5 mg/kg/injection, schedule: Q01DX009 (ip), vehicle: saline with Tween-80 102 % of control | dose: 25.0 mg/kg/injection, schedule: Q01DX009 (ip), vehicle: saline with Tween-80 91 % of control | dose: 50.0 mg/kg/injection, schedule: Q01DX009 (ip), vehicle: other 88 % of control | [4] 91 % of control

CCc1cc(Cc2cc(CC)cc(C(C)(C)C)c2O)c(O)c(C(C)(C)C)c1
inactive: dose: 100.0 mg/kg/injection, schedule: Q01DX009 (ip), vehicle: Klucel (hydroxypropylcellulose) (HPC) 107 % of control | dose: 200.0 mg/kg/injection, schedule: Q01DX009 (ip), vehicle: Klucel (hydroxypropylcellulose) (HPC) 90 % of control | dose: 400.0 mg/kg/injection, schedule: Q01DX009 (ip), vehicle: Klucel (hydroxypropylcellulose) (HPC) 104 % of control and 90 % of control

C[S+](C)CCC[S+](C)C
inactive: dose: 50.0 mg/kg/injection, schedule: Q01DX009 (ip), vehicle: saline 105 % of control | dose: 100.0 mg/kg/injection, schedule: Q01DX009 (ip), vehicle: saline 99 % of control | dose: 200.0 mg/kg/injection, schedule: Q01DX009 (ip), vehicle: saline 105 % of control

COc1ccc(N2C(=O)c3ccc4c5ccc6c7c(ccc(c8ccc(c3c48)C2=O)c75)C(=O)N(C)C6=O)cc1
inactive: [1] 97 % of control | [2] 98 % of control | [3] 105 % of control

CCOC(=O)N1C=CC2(C=C1)CCCC2
inactive: dose: 50.0 mg/kg/injection, schedule: Q01DX001 (ip), vehicle: Klucel (hydroxypropylcellulose) (HPC) 108 % of control | dose: 100.0 mg/kg/injection, schedule: Q01DX001 (ip), vehicle: Klucel (hydroxypropylcellulose) (HPC) 102 % of control | dose: 200.0 mg/kg/injection, schedule: Q01DX001 (ip), vehicle: Klucel (hydroxypropylcellulose) (HPC) 102 % of control

COc1cccc(Oc2cccc[n+]2CC(C)=O)c1
inactive: dose: 25.0 mg/kg/injection, schedule: Q01DX005 (ip), vehicle: saline 98 % of control | dose: 50.0 mg/kg/injection, schedule: Q01DX005 (ip), vehicle: saline 98 % of control

COc1ccc(S(=O)(=O)c2cnc(N)nc2N)cc1
inactive: dose: 100.0 mg/kg/injection, schedule: Q01DX001 (ip), vehicle: saline 97 % of control | dose: 200.0 mg/kg/injection, schedule: Q01DX001 (ip), vehicle: saline 93 % of control | dose: 400.0 mg/kg/injection, schedule: Q01DX001 (ip), vehicle: saline 90 % of control

COc1cc(-c2cc(O)c(-c3ccc4ccccc4n3)c(=O)[nH]2)cc(OC)c1OC
inactive: dose: 0.93 mg/kg/injection, schedule: Q01DX005 (ip), vehicle: saline with Tween-80 102 % of control | dose: 1.88 mg/kg/injection, schedule: Q01DX005 (ip), vehicle: saline with Tween-80 98 % of control | dose: 3.75 mg/kg/injection, schedule: Q01DX005 (ip), vehicle: saline with Tween-80 96 % of control | [6] 87 % of control | [7] 90 % of control

OC(CN(Cc1nc2ccccc2[nH]1)Cc1nc2ccccc2[nH]1)CN(Cc1nc2ccccc2[nH]1)Cc1nc2ccccc2[nH]1
inactive: [5] 115 % of control | [6] 115 % of control
